Source: patent US20260364184A1, “COMPOUND BASED ON OXOISOINDOLINYL-SUBSTITUTED TETRAHYDROPYRIMIDINE-DIONE AND USE THEREOF” (GLUETACS THERAPEUTICS (SHANGHAI) CO., LTD., priority 2023, published 2026)

Legend:
Type in all cases: cell-based
IRAK4 = biological target: T1, IRAK4 (Homo sapiens, UniProt Q9NWZ3); assay: Western blot degradation of IRAK4; conditions: hPBMC Cell; 24 hours
T1 construct: expression of target proteins in cells; endogenous in cells
T1 sequence (Q9NWZ3 1-460): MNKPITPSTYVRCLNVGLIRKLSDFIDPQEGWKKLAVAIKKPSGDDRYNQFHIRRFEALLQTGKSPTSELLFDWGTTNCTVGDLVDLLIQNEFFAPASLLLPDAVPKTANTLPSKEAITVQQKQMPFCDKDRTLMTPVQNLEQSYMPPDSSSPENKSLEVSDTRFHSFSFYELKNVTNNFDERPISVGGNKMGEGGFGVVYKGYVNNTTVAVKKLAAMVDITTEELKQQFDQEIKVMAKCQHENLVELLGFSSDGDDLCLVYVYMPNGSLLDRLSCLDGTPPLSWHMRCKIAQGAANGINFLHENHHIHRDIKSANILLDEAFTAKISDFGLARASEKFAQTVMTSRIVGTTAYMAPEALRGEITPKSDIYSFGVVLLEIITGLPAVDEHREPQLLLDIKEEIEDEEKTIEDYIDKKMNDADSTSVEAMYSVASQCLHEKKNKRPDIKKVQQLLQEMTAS
In short: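 Immunoblot of drug-treated versus DMSO-treated cell lysates, with densitometric quantification. Values: DC50 (50% band loss, fitted) and loading-control-normalised % remaining or degradation.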

[1] = Inhibition of RPMI-8226 cell proliferation (CellTiter luminescent viability); conditions: Homo sapiens; Table IA4, IRAK4 inhibitor-based; RPMI-8226, 10 nM, 96 hours; read-out: Inhibition Rate at 10 nM (%)
Protocol: (§1) The tumor cells used herein were cultured in a cell culture medium listed in table 3 at 37 °C in an incubator with 5% CO2. Prior to experimentation, all cell lines used were correctly identified by STR profiling, and tested negative for mycoplasma contamination using a mycoplasma detection kit through routine screenings.
(§2) The IC50 values of the compounds of the present disclosure (including the compounds in Table 1, Table 2, and Examples 1-468) were determined using the CellTiter-Meiluncell Luminescent Cell Viability Assay Kit from Dalian Meilun Biotech Co., Ltd. The detailed procedure is as follows: Tumor cells were seeded in 96-well cell culture plates at the densities specified in Table 4. On the following day, the test compounds of the present disclosure were subjected to serial dilution. The dilution can be performed according to one of the following two methods: • (1) The first dilution method: The test compounds of the present disclosure (including the compounds in Table 1, Table 2, and Examples 1-468) were subjected to 5-fold serial dilutions starting from a highest concentration of 2000 μM, resulting in a total of 9 concentrations from high to low (2000, 400, 80, 16, 3.2, 0.64, 0.128, 0.0256, 0.00512 μM). Subsequently, 0.5 μL of the test compound dilution was transferred into the 96-well plate containing the cells, with each well containing 100 μL of cell culture medium. […] Into the 96-well plate, the diluted test compounds and corresponding detection reagents were added, resulting in final test compound concentrations of 500 nM and 10 nM, respectively. The experimental procedure is described below using the diluted 2 μM test compound as an example.
(§3) 0.5 μL of the aforementioned diluted compound of the present disclosure (including the compounds in Table 1, Table 2, and Examples 1-468) was added to the seeded cells in 100 μL of medium, yielding a final test compound concentration of 10 nM. After the cells were treated with the compounds of the present disclosure for a specified period, the cell viability assay reagent was added to the culture medium according to the kit's instructions to determine cell viability. […] All controls were treated using the same procedure as the compounds of the present disclosure. The growth inhibition curves for the compounds of the present disclosure were plotted using Prism GraphPad software, and the IC50 values were calculated therefrom.

[2] = test system: Human B-Cell Lymphoma Cells (RPMI-8226); assay: as above; conditions: Table IA4, IRAK4 inhibitor-based, RPMI-8226, 500 nM, 96 hours, read-out: Inhibition Rate at 500 nM (%)
Protocol: as §1, §2, §3

[3] = test system: Human myeloid monocytic leukemia cell line (MV-4-11); assay: Inhibition of MV-4-11 cell proliferation (CellTiter luminescent viability); conditions: Homo sapiens, MV4-11, Table IA3, IRAK4 inhibitor-based, 96 hours; for inhibition at 0.01 µM: MV-4-11, 10 nM, read-out: Inhibition Rate at 10 nM (%); for inhibition at 0.5 µM: MV-4-11, 500 nM, read-out: Inhibition Rate at 500 nM (%)
In short: (§4)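 IC50 is fitted from luminescent viability (CellTiter-Meiluncell) curves. Nine-point, 5-fold dilution series (top stock 2000 μM) are added at 0.5 μL per 100 μL medium to cells plated the day before, with growth at 37 °C and 5% CO2.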

[4] = test system: Human Multiple myeloma cell line (MM.1S); assay: Inhibition of MM.1S cell proliferation (CellTiter luminescent viability); conditions: Homo sapiens, MM1.S, Table IA5, IRAK4 inhibitor-based, 96 hours; for inhibition at 0.01 µM: 10 nM, read-out: Inhibition Rate at 10 nM (%); for inhibition at 0.5 µM: 500 nM, read-out: Inhibition Rate at 500 nM (%)
In short: as §4

| SMILES | Degradation of substrate protein IRAK4 (substrate protein remaining %) (IRAK4) | inhibition at 0.01 µM [1] [%] | inhibition at 0.5 µM [2] [%] | inhibition at 0.01 µM [3] [%] | inhibition at 0.5 µM [3] [%] | inhibition at 0.01 µM [4] [%] | inhibition at 0.5 µM [4] [%] |
| --- | --- | --- | --- | --- | --- | --- | --- |
| CC(C)(O)c1cc2nc(C3CCN(CC4CCN(c5cccc6c5C(=O)N(N5CCC(=O)NC5=O)C6=O)CC4)CC3)sc2cc1NC(=O)c1cccc(C(F)(F)F)n1 [GT-05818, N-(2-(1-((1-(2-(2,4-dioxotetrahydropyrimidin-1(2H)-yl)-1,3-dioxoisoindolin-4-yl)piperidin-4-yl)methyl)piperidin-4-yl)-5-(2-hydroxypropan-2-yl)benzo[d]thiazol-6-yl)-6-(trifluoromethyl) picolinamide] | A (0%≤substrate protein remaining %≤80%) | 20 to 25 | 10 to 15 | 10 to 20 | 50 to 60 |  |  |
| CC(C)Nc1cc(-n2ccc3cc(C#N)cnc32)ncc1C(=O)NC1CCN(Cc2ccc3c(c2)CN(N2CCC(=O)NC2=O)C3=O)CC1 [GT-05319, 6-(5-cyano-1H-pyrrolo[2,3-b]pyridin-1-yl)-N-(1-((2-(2,4-dioxotetrahydropyrimidin-1(2H)-yl)-1-oxoisoindolin-5-yl)methyl)piperidin-4-yl)-4-((isopropyl)amino) nicotinamide] | A (0%≤substrate protein remaining %≤80%) | 30 to 40 | 40 to 60 |  |  | 30 to 40 | 30 to 40 |
| COc1cc2nn([C@H]3CC[C@H](CN4CCN(c5cccc6c5C(=O)N(N5CCC(=O)NC5=O)C6=O)CC4)CC3)cc2cc1NC(=O)c1cccc(C(F)(F)F)c1 [GT-08668, N-(2-((1r,4r)-4-((4-(2-(2,4-dioxotetrahydropyrimidin-1(2H)-yl)-1,3-dioxoisoindolin-4-yl)piperazin-1-yl)methyl)cyclohexyl)-6-methoxy-2H-indazol-5-yl)-3-(trifluoromethyl)benzamide] | A (0%≤substrate protein remaining %≤80%) | 20 to 25 | 30 to 40 |  |  |  |  |
| Cc1cc(-c2nc(C(=O)Nc3cc4oc(N5CCN(CC6CCN(c7cccc8c7C(=O)N(N7CCC(=O)NC7=O)C8=O)CC6)CC5)nc4nc3N3CC[C@@H](O)C3)co2)ccn1 [GT-05806, (R)—N-(2-(4-((1-(2-(2,4-dioxotetrahydropyrimidin-1(2H)-yl)-1,3-dioxoisoindolin-4-yl)piperidin-4-yl)methyl)piperazin-1-yl)-5-(3-hydroxypyrrolidin-1-yl)oxazolo[4,5-b]pyridin-6-yl)-2-(2-methylpyridin-4-yl) oxazole-4-carboxamide] | A (0%≤substrate protein remaining %≤80%) | 20 to 25 | 25 to 30 | 45 to 50 | 80 to 100 |  |  |
| COc1cc2nn([C@H]3CC[C@H](CN4C5CC4CN(c4ccc6c(c4)C(=O)N(N4CCC(=O)NC4=O)C6=O)C5)CC3)cc2cc1NC(=O)c1cccc(C(F)(F)F)n1 [GT-08653, N-(2-((1r,4r)-4-((3-(2-(2,4-dioxotetrahydropyrimidin-1(2H)-yl)-1,3-dioxoisoindolin-5-yl)-3,6-diazabicyclo[3.1.1]heptan-6-yl)methyl)cyclohexyl)-6-methoxy-2H-indazol-5-yl)-6-(trifluoromethyl) picolinamide] | A (0%≤substrate protein remaining %≤80%) | 15 to 20 | 25 to 30 |  |  |  |  |

Second part, led by results:

| Degradation of substrate protein IRAK4 (substrate protein remaining %) (IRAK4) | SMILES | inhibition at 0.01 µM [1] [%] | inhibition at 0.5 µM [2] [%] | inhibition at 0.01 µM [3] [%] | inhibition at 0.5 µM [3] [%] | inhibition at 0.01 µM [4] [%] | inhibition at 0.5 µM [4] [%] |
| --- | --- | --- | --- | --- | --- | --- | --- |
| A (0%≤substrate protein remaining %≤80%) | O=C1CCN(N2C(=O)c3ccc(N4CCC(N5CCC(CN6CCC(n7cc(NC(=O)c8cnn9ccc(N%10C[C@H]%11C[C@@H]%10CO%11)nc89)c(C(F)F)n7)CC6)CC5)CC4)cc3C2=O)C(=O)N1 [GT-05816, 5-((1R,4R)-2-oxa-5-azabicyclo[2.2.1]heptan-5-yl)-N-(3-(difluoromethyl)-1-(1-((1′-(2-(2,4-dioxotetrahydropyrimidin-1(2H)-yl)-1,3-dioxoisoindolin-5-yl)-[1,4′-bipiperidin]-4-yl)methyl)piperidin-4-yl)-1H-pyrazol-4-yl)pyrazolo[1,5-a]pyrimidine-3-carboxamide] | 30 to 40 | 15 to 20 | -10 to -5 | 50 to 60 |  |  |
| A (0%≤substrate protein remaining %≤80%) | O=C1CCN(N2C(=O)c3ccc(CN4CCC(n5cc(NC(=O)c6coc(-c7ccnc(NCC(F)(F)F)c7)n6)c(C(F)F)n5)CC4)cc3C2=O)C(=O)N1 [GT-05188, N-(3-(difluoromethyl)-1-(1-((2-(2,4-dioxotetrahydropyrimidin-1(2H)-yl)-1,3-dioxoisoindolin-5-yl)methyl)piperidin-4-yl)-1H-pyrazol-4-yl)-2-(2-((2,2,2-trifluoroethyl)amino)pyridin-4-yl) oxazole-4-carboxamide] | 30 to 40 | 40 to 60 | 36 to 45 | 80 to 100 | 10 to 15 | 30 to 40 |
| A (0%≤substrate protein remaining %≤80%) | O=C1CCN(N2C(=O)c3cc(F)c(N4CCN(C[C@H]5CC[C@H](n6cc(NC(=O)c7cnn8ccc(N9C[C@H]%10C[C@@H]9CO%10)nc78)c(C(F)F)n6)CC5)CC4)cc3C2=O)C(=O)N1 [GT-05239, 5-((1R,4R)-2-oxa-5-azabicyclo[2.2.1]heptan-5-yl)-N-(3-(difluoromethyl)-1-((1r,4R)-4-((4-(2-(2,4-dioxotetrahydropyrimidin-1(2H)-yl)-6-fluoro-1,3-dioxoisoindolin-5-yl)piperazin-1-yl)methyl)cyclohexyl)-1H-pyrazol-4-yl)pyrazolo[1,5-a]pyrimidine-3-carboxamide] | 30 to 40 | 20 to 25 |  |  |  |  |
| A (0%≤substrate protein remaining %≤80%) | O=C1CCN(N2C(=O)c3ccc(N4CCC(CN5CCC(n6cc(NC(=O)c7cnn8ccc(N9CCOCC9)nc78)c(C(F)F)n6)CC5)CC4)cc3C2=O)C(=O)N1 [GT-05291, N-(3-(difluoromethyl)-1-(1-((1-(2-(2,4-dioxotetrahydropyrimidin-1(2H)-yl)-1,3-dioxoisoindolin-5-yl)piperidin-4-yl)methyl)piperidin-4-yl)-1H-pyrazol-4-yl)-5-morpholinopyrazolo[1,5-a]pyrimidine-3-carboxamide] | 25 to 30 | 25 to 30 | 50 to 60 | 60 to 80 | 10 to 15 | 20 to 25 |
